From BindingDB's records for doi:10.1002/cbic.200500089 (Progen Industries, 2005)

Tests used:
[1] = target: Fibroblast growth factor 2 (Homo sapiens, UniProt P09038); test: Binding Assay; conditions: pH 7.4
Method: (§1) Human FGF-1 and FGF-2 were purchased from R&D Systems, Inc. and supplied as protein (ug) dissolved in bovine serum albumin (BSA, 50ug). Surface plasmon resonance (SPR) measurements were performed on a BIA-core 3000 from BIAcore, Uppsala, Sweden and operated by the BIAcore control software.

[2] = target: Fibroblast growth factor 1 (Homo sapiens, UniProt P05230); test: Binding Assay; conditions: pH 7.4
Method: as §1

Fibroblast growth factor 2, sequence (P09038 143-288 limits assumed): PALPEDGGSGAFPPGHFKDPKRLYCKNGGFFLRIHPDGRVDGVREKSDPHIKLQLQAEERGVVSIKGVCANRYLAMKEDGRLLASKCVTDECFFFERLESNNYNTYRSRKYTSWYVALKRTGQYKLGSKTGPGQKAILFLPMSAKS
Fibroblast growth factor 1, sequence (P05230 whole entry): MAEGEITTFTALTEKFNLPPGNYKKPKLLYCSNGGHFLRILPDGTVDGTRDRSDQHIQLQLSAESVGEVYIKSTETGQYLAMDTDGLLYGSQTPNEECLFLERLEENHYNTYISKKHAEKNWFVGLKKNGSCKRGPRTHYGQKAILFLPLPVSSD

O=S(=O)(O)O[C@H]1[C@H](OS(=O)(=O)O)[C@@H](N(CCN([C@H]2C=C[C@@H](OS(=O)(=O)O)[C@@H](OS(=O)(=O)O)[C@@H]2OS(=O)(=O)O)[C@H]2C=C[C@@H](OS(=O)(=O)O)[C@@H](OS(=O)(=O)O)[C@@H]2OS(=O)(=O)O)[C@H]2C=C[C@@H](OS(=O)(=O)O)[C@@H](OS(=O)(=O)O)[C@@H]2OS(=O)(=O)O)C=C[C@H]1OS(=O)(=O)O [Linked sulfated tetracyclitol, 2] was tested, and the Kd [1] was 1100 nM and the Kd [2] was 20.7 nM.

O=S(=O)(O)O[C@H]1[C@H](OS(=O)(=O)O)[C@@H](N(CCCN([C@H]2C=C[C@@H](OS(=O)(=O)O)[C@@H](OS(=O)(=O)O)[C@@H]2OS(=O)(=O)O)[C@H]2C=C[C@@H](OS(=O)(=O)O)[C@@H](OS(=O)(=O)O)[C@@H]2OS(=O)(=O)O)[C@H]2C=C[C@@H](OS(=O)(=O)O)[C@@H](OS(=O)(=O)O)[C@@H]2OS(=O)(=O)O)C=C[C@H]1OS(=O)(=O)O [Linked sulfated tetracyclitol, 3] showed a Kd [1] of 248 nM and a Kd [2] of 7.2 nM.

O=S(=O)(O)O[C@H]1[C@H](OS(=O)(=O)O)[C@@H](N(CCCCN([C@H]2C=C[C@@H](OS(=O)(=O)O)[C@@H](OS(=O)(=O)O)[C@@H]2OS(=O)(=O)O)[C@H]2C=C[C@@H](OS(=O)(=O)O)[C@@H](OS(=O)(=O)O)[C@@H]2OS(=O)(=O)O)[C@H]2C=C[C@@H](OS(=O)(=O)O)[C@@H](OS(=O)(=O)O)[C@@H]2OS(=O)(=O)O)C=C[C@H]1OS(=O)(=O)O [Linked sulfated tetracyclitol, 4] gave a Kd [1] of 161 nM and a Kd [2] of 25.4 nM.

O=S(=O)(O)O[C@H]1[C@H](OS(=O)(=O)O)[C@@H](N(CCCCCN([C@H]2C=C[C@@H](OS(=O)(=O)O)[C@@H](OS(=O)(=O)O)[C@@H]2OS(=O)(=O)O)[C@H]2C=C[C@@H](OS(=O)(=O)O)[C@@H](OS(=O)(=O)O)[C@@H]2OS(=O)(=O)O)[C@H]2C=C[C@@H](OS(=O)(=O)O)[C@@H](OS(=O)(=O)O)[C@@H]2OS(=O)(=O)O)C=C[C@H]1OS(=O)(=O)O [Linked sulfated tetracyclitol, 5] showed a Kd [1] of 148 nM and a Kd [2] of 29.8 nM.

Work on O=S(=O)(O)O[C@H]1[C@H](OS(=O)(=O)O)[C@@H](N(CCCCCCN([C@H]2C=C[C@@H](OS(=O)(=O)O)[C@@H](OS(=O)(=O)O)[C@@H]2OS(=O)(=O)O)[C@H]2C=C[C@@H](OS(=O)(=O)O)[C@@H](OS(=O)(=O)O)[C@@H]2OS(=O)(=O)O)[C@H]2C=C[C@@H](OS(=O)(=O)O)[C@@H](OS(=O)(=O)O)[C@@H]2OS(=O)(=O)O)C=C[C@H]1OS(=O)(=O)O [Linked sulfated tetracyclitol, 6] yielded a Kd [1] of 135 nM and a Kd [2] of 39 nM.

O=S(=O)(O)O[C@H]1[C@H](OS(=O)(=O)O)[C@@H](N(CCCCCCCN([C@H]2C=C[C@@H](OS(=O)(=O)O)[C@@H](OS(=O)(=O)O)[C@@H]2OS(=O)(=O)O)[C@H]2C=C[C@@H](OS(=O)(=O)O)[C@@H](OS(=O)(=O)O)[C@@H]2OS(=O)(=O)O)[C@H]2C=C[C@@H](OS(=O)(=O)O)[C@@H](OS(=O)(=O)O)[C@@H]2OS(=O)(=O)O)C=C[C@H]1OS(=O)(=O)O [Linked sulfated tetracyclitol, 7] was tested, and the Kd [1] was 90 nM and the Kd [2] was 8 nM.

O=S(=O)(O)O[C@H]1[C@H](OS(=O)(=O)O)[C@@H](N(CCCCCCCCN([C@H]2C=C[C@@H](OS(=O)(=O)O)[C@@H](OS(=O)(=O)O)[C@@H]2OS(=O)(=O)O)[C@H]2C=C[C@@H](OS(=O)(=O)O)[C@@H](OS(=O)(=O)O)[C@@H]2OS(=O)(=O)O)[C@H]2C=C[C@@H](OS(=O)(=O)O)[C@@H](OS(=O)(=O)O)[C@@H]2OS(=O)(=O)O)C=C[C@H]1OS(=O)(=O)O [Linked sulfated tetracyclitol, 8] was tested, and the Kd [1] was 108 nM and the Kd [2] was 40.4 nM.

Compound O=S(=O)(O)O[C@H]1[C@H](OS(=O)(=O)O)[C@@H](N(CCCCCCCCCN([C@H]2C=C[C@@H](OS(=O)(=O)O)[C@@H](OS(=O)(=O)O)[C@@H]2OS(=O)(=O)O)[C@H]2C=C[C@@H](OS(=O)(=O)O)[C@@H](OS(=O)(=O)O)[C@@H]2OS(=O)(=O)O)[C@H]2C=C[C@@H](OS(=O)(=O)O)[C@@H](OS(=O)(=O)O)[C@@H]2OS(=O)(=O)O)C=C[C@H]1OS(=O)(=O)O [Linked sulfated tetracyclitol, 9] has a Kd [1] of 194 nM and a Kd [2] of 119 nM.

In the case of O=S(=O)(O)O[C@H]1[C@H](OS(=O)(=O)O)[C@@H](N(CCCCCCCCCCN([C@H]2C=C[C@@H](OS(=O)(=O)O)[C@@H](OS(=O)(=O)O)[C@@H]2OS(=O)(=O)O)[C@H]2C=C[C@@H](OS(=O)(=O)O)[C@@H](OS(=O)(=O)O)[C@@H]2OS(=O)(=O)O)[C@H]2C=C[C@@H](OS(=O)(=O)O)[C@@H](OS(=O)(=O)O)[C@@H]2OS(=O)(=O)O)C=C[C@H]1OS(=O)(=O)O [Linked sulfated tetracyclitol, 10], the Kd [1] is reported as 448 nM and the Kd [2] is reported as 115 nM.
